Experimental data as given in patent US11702417B2, “Compounds for improving mRNA splicing” (The General Hospital Corporation, priority 2015, dated 2023).
Where two headings read alike, the source gives them in different places.

Tested on: FD (familial dysautomonia) IKBKAP minigene, exon 20 inclusion, in HEK293T cells
Experiment: Primary splicing assay (FD IKBKAP minigene, Firefly/Renilla luciferase reporter in HEK293T)
Format: cell-based, human
Settings: for EC (maximum kinetin efficacy) / Emax: Homo sapiens, HEK-293T; for EC (maximum kinetin efficacy): HEK293T, read-out: ECk (compound concentration at which the maximum kinetin efficacy (200 μM) is reached); for ECk (RT-PCR): determined by RT-PCR, footnote a Firefly inhibitor, footnote b Renilla interference
Protocol: As used herein, the expression “ECk” refers to the compound concentration at which the maximum kinetin efficacy (200 μM) is reached.
Splicing analysis was made possible by using an FD (familial dysautomonia) IKBKAP minigene which contained exon 19 through exon 21, including intervening introns, and also the T→C Thymine to cytosine transition located 6 base-pairs from the end of IKBKAP exon 20; See SEQ ID NO:3 for the complete sequence of plasmid pcDNA3.1/V5HisTOPO with Renilla-Familial Dysautonomia minigene-Firefly. Firefly luciferase (SEQ ID NO:14) was utilized as a splicing reporter, located downstream of exon 21, and Renilla luciferase (SEQ ID NO:13) was used as a control, located upstream of exon 19. The sequence of exon 19 is presented as SEQ ID NO:7; the Intron between Exon 19 and Exon 20 is SEQ ID NO:8; exon 20 is SEQ ID NO:9; the intron between […]; exon 21 is SEQ ID NO: 11, and the spliced sequence of exons 19-20-21 is SEQ ID NO:12. HEK293T cells were plated in a 6-well plate 24 hours prior to transfection. Transfection was carried out using a mixture of Opti-MEM (GIBCO ref. 31985), IKBKAP minigene, and Fugene HID (PROMEGA ref. E2311), incubated in DMEM media containing HEK293T cells at 37° C. The ratio of Opti-MEM, minigene, and Fugene was kept at approximately 9:1.5:1, with a total volume of 150 μL of transfection mixture applied per well.
After 4 hours of transfection, the cells were then plated in a 96-well plate coated with poly-L-lysine (SIGMA cat.P4707) for treatment scheduled 24 hours later. […] After 24 hours of treatment, cells were washed in the poly-L-lysine coated 96-well plate using PBS and subsequently harvested using Passive Lysis Buffer (Promega cat.E196). Cell lysate was transferred to a black and white 96-well plate and analyzed for splicing correction using a Glomax luminometer (PROMEGA GloMax® 96 Microplate Luminometer w/Dual Injectors cat.E6521) and Promega Dual Glo Firefly and Stop and Glo Renilla reagents (Cat.E196). The compound's ability to correct splicing and promote exon 20 inclusion was marked by an increase in Firefly signal. Renilla signal, which is independent of exon 20 inclusion, was used to correct for cell number. Using the ratio of Firefly to Renilla signal, a dose response curve was produced, which referenced kinetin and DMSO Firefly/Renilla ratios as positive and negative controls, respectively.

[1] = Firefly/Renilla ratio, 24 hours of treatment
[2] = max efficacy in Primary Assay, Firefly/Renilla ratio, kinetin and DMSO as positive and negative controls, 24 hours of treatment, read-out: Emax (%)
[3] = max efficacy, value marked (RT-PCR), footnote a: Firefly inhibitor, read-out: Emax (%) (RT-PCR)
[4] = max efficacy in Primary Assay, value flagged footnote a: Firefly inhibitor, read-out: Emax (%)

| SMILES | EC (maximum kinetin efficacy) [1] [µM] | Emax [2] [%] | other results |
| --- | --- | --- | --- |
| Cc1c[nH]c2nc(Cl)nc(NCc3ccncn3)c12 [(126)] | 4.73 | 155 | – |
| OCCn1ccc2c(NCc3ccncn3)nc(Cl)nc21 [(127)] | 5.45 | 264 | – |
| Cc1cn(CCO)c2nc(Cl)nc(NCc3ccncn3)c12 [(128)] | 15.4 | 155 | – |
| Clc1nc(NCc2ccncn2)c2nc[nH]c2n1 [(129)] | 5.6 | 169 | – |
| OCCn1cc(F)c2c(NCc3nccs3)nc(Cl)nc21 [(130)] | 8.9 | 201 | – |
| Clc1nc(NCc2nccs2)c2nc[nH]c2n1 [(131)] | 7 | 190 | – |
| O[C@H]1C=C[C@H](n2ccc3c(NCc4ccco4)nc(Cl)nc32)C1 [(132)] | – | – | Emax [3]: 67.7% |
| [N-]=[N+]=Nc1nc2c(NCc3ccco3)nc(Cl)nc2[nH]1 [(133)] | 11.8 | 143 | – |
| Clc1nc(NCc2ccncc2)c2nc[nH]c2n1 [(134)] | 6.25 | 174 | – |
| OCCn1cc(F)c2c(NCc3ccncc3)nc(Cl)nc21 [(135)] | 9.06 | 194 | – |
| Cc1cc2c(NCc3ccncn3)nc(Cl)nc2[nH]1 [(136)] | 7.52 | 143 | – |
| OCCn1ccc2c(NCc3nccs3)nc(Cl)nc21 [(137)] | 7.25 | 214 | – |
| OCCn1cc(F)c2c(NCc3ccncn3)nc(Cl)nc21 [(138)] | 12.8 | 174 | – |
| O[C@@H]1C=C[C@H](n2ccc3c(NCc4ccco4)nc(Cl)nc32)C1 [(139)] | – | – | Emax [3]: 52.2% |
| Clc1nc(NCc2ccncc2)c2nc(C3CC3)[nH]c2n1 [(141)] | – | 103 | – |
| Clc1nc(NCc2nccs2)c2nc(C3CC3)[nH]c2n1 [(142)] | 16.1 | 121 | – |
| Cc1[nH]c2nc(Cl)nc(NCc3ccco3)c2c1Br [(143)] | – | 24 | – |
| Clc1nc(NCc2ccncn2)c2nc(C3CC3)[nH]c2n1 [(144)] | 7.7 | 127 | – |
| N#Cc1c[nH]c2nc(Cl)nc(NCc3ccco3)c12 [(145)] | – | 59 | – |
| Nc1nc2c(NCc3ccco3)nc(Cl)nc2[nH]1 [(146)] | 9.41 | 154 | – |
| Cc1cc2c(NCc3nccs3)nc(Cl)nc2[nH]1 [(147)] | – | 80 | – |
| N#Cc1c[nH]c2nc(Cl)nc(NCc3nccs3)c12 [(148)] | – | 62 | – |
| FCCn1ccc2c(NCc3ccco3)nc(Cl)nc21 [(150)] | – | – | Emax [3]: 320%; ECk (RT-PCR): 1 to 10 µM |
| N#Cc1c[nH]c2nc(Cl)nc(NCc3ccncc3)c12 [(151)] | – | 73 | – |
| N#Cc1c[nH]c2nc(Cl)nc(NCc3ccncn3)c12 [(152)] | – | 35 | – |
| CN(C)C(=O)Cn1ccc2c(NCc3ccco3)nc(Cl)nc21 [(153)] | – | 20 | – |

| SMILES | EC (maximum kinetin efficacy) [1] [µM] | Emax [2] [%] | other results |
| --- | --- | --- | --- |
| Cc1cc2c(NCc3ccco3)nc(Cl)nc2n1CCO [(154)] | 22.2 | 151 | – |
| CC(C)(O)Cn1ccc2c(NCc3ccco3)nc(Cl)nc21 [(155)] | 22.2 | – | Emax [4]: 151% |
| Clc1nc(NCc2ccco2)c2cc(C3CC3)[nH]c2n1 [(156)] | 15.8 | 73 | – |
| COCc1c[nH]c2nc(Cl)nc(NCc3ccco3)c12 [(158)] | 13.4 | 20 | – |
| Cc1[nH]c2nc(Cl)nc(NCc3ccco3)c2c1F [(159)] | – | – | Emax [4]: 228%; ECk (RT-PCR): 1 to 10 µM |
| FC(F)(F)CCn1ccc2c(NCc3ccco3)nc(Cl)nc21 [(160)] | – | 85 | – |
| CNC(=O)Cn1ccc2c(NCc3ccco3)nc(Cl)nc21 [(161)] | – | 65 | – |
| N#Cc1nc2c(NCc3ccco3)nc(Cl)nc2[nH]1 [(162)] | 48.7 | 103 | – |
| Clc1nc(NCc2cc3ccccc3o2)c2cc[nH]c2n1 [(163)] | – | 35 | – |
| Clc1nc(NCc2cc3ccccc3o2)c2nc[nH]c2n1 [(164)] | – | 68 | – |
| NC(=O)c1c[nH]c2nc(Cl)nc(NCc3ccco3)c12 [(165)] | – | 59 | – |
| COCc1cc2c(NCc3ccco3)nc(Cl)nc2[nH]1 [(166)] | – | 80 | – |
| O=C(O)Cn1ccc2c(NCc3ccco3)nc(Cl)nc21 [(167)] | – | 37 | – |
| O=C(c1c[nH]c2nc(Cl)nc(NCc3ccco3)c12)N1CCCC1 [(168)] | – | 54 | – |
| OCc1cc2c(NCc3ccco3)nc(Cl)nc2[nH]1 [(170)] | 49.5 | 92 | – |
| Cc1nc2c(NCc3ccco3)c(C(N)=O)cnc2[nH]1 [(171)] | – | 48 | – |
| CNC(=O)c1c[nH]c2nc(Cl)nc(NCc3ccco3)c12 [(172)] | – | 61 | – |
| Clc1nc(NCc2ccco2)c2c(CN3CCCC3)c[nH]c2n1 [(173)] | – | 30 | – |
| Clc1nc(NCc2cccnn2)c2cc[nH]c2n1 [(174)] | – | 37 | – |
| Clc1nc(NCc2ccno2)c2nc[nH]c2n1 [(175)] | – | 29 | – |
| Clc1nc(NCc2ccnnc2)c2cc[nH]c2n1 [(176)] | – | 48 | – |
| CNCc1c[nH]c2nc(Cl)nc(NCc3ccco3)c12 [(177)] | – | 60 | – |
| Clc1nc(NCc2ccno2)c2cc[nH]c2n1 [(178)] | – | 76 | – |
| Clc1nc(NCc2ccnnc2)c2nc[nH]c2n1 [(179)] | – | 49 | – |
| CN(C)Cc1c[nH]c2nc(Cl)nc(NCc3ccco3)c12 [(180)] | – | 28 | – |
| CNCc1cc2c(NCc3ccco3)nc(Cl)nc2[nH]1 [(181)] | 8.4 | 122 | – |

| SMILES | EC (maximum kinetin efficacy) [1] [µM] | Emax [2] [%] | other results |
| --- | --- | --- | --- |
| Clc1nc(NCc2ccco2)c2ccn(C3CCOCC3)c2n1 [(182)] | – | 20 | – |
| COc1nc2c(NCc3ccncc3)nc(Cl)nc2[nH]1 [(184)] | 3.62 | 169 | – |
| Clc1nc(NCc2ccnc3ccccc23)c2nc[nH]c2n1 [(185)] | – | 22 | – |
| Clc1nc(NCc2ccnc3ccccc23)c2cc[nH]c2n1 [(186)] | – | 17 | – |
| CNC(=O)c1cc2c(NCc3ccco3)nc(Cl)nc2[nH]1 [(187)] | – | 111 | – |
| NC(=O)c1cc2c(NCc3ccco3)nc(Cl)nc2[nH]1 [(188)] | 11.7 | 145 | – |
| Cc1cc(CNc2nc(Cl)nc3[nH]ccc23)ccn1 [(189)] | – | 33 | – |
| O=C(c1cc2c(NCc3ccco3)nc(Cl)nc2[nH]1)N1CCCC1 [(190)] | – | 68 | – |
| FCCn1ccc2c(NCc3ccncn3)nc(Cl)nc21 [(191)] | 5.92 | 231 | – |
| FCCn1ccc2c(NCc3nccs3)nc(Cl)nc21 [(192)] | 7.13 | 210 | – |
| FCCn1ccc2c(NCc3ccncc3)nc(Cl)nc21 [(194)] | 4.49 | 241 | – |
| CN(C)C(=O)c1cc2c(NCc3ccco3)nc(Cl)nc2[nH]1 [(195)] | – | 81 | – |
| Cc1cc(CNc2nc(Cl)nc3[nH]cnc23)ccn1 [(196)] | – | 7 | – |
| CC(=O)N1CCC(n2ccc3c(NCc4ccco4)nc(Cl)nc32)CC1 [(197)] | – | 14 | – |
| Clc1cc(NCc2ccco2)c2nc[nH]c2n1 [(198)] | 5.01 | 125 | – |
| OCCNc1nc2c(NCc3ccco3)nc(Cl)nc2[nH]1 [(199)] | – | 22 | – |
| FC(F)(F)CN1CCC(n2ccc3c(NCc4ccco4)nc(Cl)nc32)CC1 [(200)] | – | 11 | – |
| Cc1[nH]c2nc(Cl)nc(NCc3ccncc3)c2c1F [(201)] | – | 27 | – |
| CNc1nc2c(NCc3ccco3)nc(Cl)nc2n1CCO [(202)] | 9.35 | 137 | – |
| CC(=O)NCCn1ccc2c(NCc3ccco3)nc(Cl)nc21 [(203)] | – | – | Emax [4]: 27% |
| Cc1[nH]c2nc(Cl)nc(NCc3ccncn3)c2c1F [(204)] | – | 27 | – |
| Clc1nc(NCc2ccco2)c2c(Cl)c[nH]c2n1 [(205)] | 6.41 | 27 | – |
| CN(C)CCn1ccc2c(NCc3ccco3)nc(Cl)nc21 [(206)] | – | 27 | – |
| Clc1nc(NCc2ccncc2)c2c(Cl)c[nH]c2n1 [(207)] | 75.8 | 109 | – |
| Clc1nc(NCc2nccs2)c2c(Cl)c[nH]c2n1 [(208)] | 107 | 83 | – |
